Assays:
[1] = tested on: pontogeniculo-occipital points (P.G.O.) caused by reserpine; experiment: Test C: diminution in density of reserpine-induced pontogeniculo-occipital (P.G.O.) points in the cat; assay type: in vivo; details: Felis catus, po, reserpine 0.5 mg/kg, read-out: Test C 50 DE
Method: Diminution in the density of pontogeniculo-occipital points (P.G.O.) caused by injecting a cat with 0.5 mg/kg of reserpine, according to the mode of operation described by COSTON A. and GOURET C. in J. Pharmacol. (PARIS), (1976), 7, 409.

Acute toxicity in mice = details: mouse, in vivo, po, acute toxicity, read-out: 50 DL
[2] = tested on: ptosis observed one hour after an intravenous injection of reserpine; experiment: Test B: antagonism of reserpine-induced ptosis in the mouse; assay type: in vivo; details: po, 1 h, p.o., reserpine 2 mg/kg i.v., read-out: Test B 50 DE
Method: Antagonism in relation to ptosis observed one hour after an intravenous injection (2 mg/kg) of reserpine was given to a mouse, according to the mode of operation described by GOURET C. and THOMAS J. in J. Pharmacol. (PARIS), (1973), 4, 401.

[3] = tested on: generalised trembling caused by an intraperitoneal injection of dl-5-hydroxytryptophane; experiment: Test A: potentiation of generalised trembling caused by dl-5-hydroxytryptophane in the mouse; assay type: in vivo; details: po; mouse, p.o.; dl-5-hydroxytryptophane 200 mg/kg i.p.; read-out: Test A 50 DE
Method: Potentiation in a mouse of generalised trembling caused by an intraperitoneal injection (200 mg/kg) of dl-5-hydroxytryptophane, according to the mode of operation described by GOURET C. and RAYNAUD G. in the J. Pharmacol. (PARIS), (1974), 5, 231.

| Structure (SMILES) | ED50 [1] [mg/kg] | LD50 (Acute toxicity in mice) [mg/kg] | ED50 [2] [mg/kg] | ED50 [3] [mg/kg] |
| --- | --- | --- | --- | --- |
| CCOc1ccc(N2CC(CO)OC2=O)cc1 (centres unmarked) [compound 760037] | 5.4 | > 2000 | 40 | 16 |
| CSc1ccc(N2CC(CO)OC2=O)cc1 (centres unmarked) [compound 760082] | 8.4 | > 2000 | 18 | 22 |
| O=C1OC(CO)CN1c1ccc(OCc2ccccc2)cc1 (centres unmarked) [compound 760167, 5-hydroxymethyl 3-p-benzyloxyphenyl 2-oxazolidinone] | 15.2 | > 2000 | 3.3 | 9.5 |
| N#Cc1ccc(N2CC(CO)OC2=O)cc1 (centres unmarked) [compound 760271] | 11 | 1050 | 11 | 20 |
| CCCCOc1ccc(N2CC(CO)OC2=O)cc1 (centres unmarked) [compound 760304] | 6.1 | > 2000 | 5 | 5 |

Reference: patent publication US4150029A, “3-Aryl 2-oxazolidinones, their process of preparation and their therapeutical application” (Delalande S.A., priority 1976, dated 1979)
